The record followed here is article PMC7948405, “Small-molecule control of neurotransmitter sulfonation” (The Journal of Biological Chemistry, 2020).

The target of this assay is T1, SULT1A3 in HME(+) cells (Homo sapiens, UniProt P0DMM9).
T1 construct: HME cells were transfected with plasmid containing the coding region of either SULT1A3 or a negative control; expressed in transfected cells
The assay is described as follows: Ex vivo inhibition of dopamine sulfate (DPS) synthesis in SULT1A3-transfected HME(+) cells. It counts as cell-based. The note with it: 100 μM DP, 24 h, parentheses 1 SD. On the procedure: A stable transfectant cell line was constructed to test the ability of CMP12 and CMP13 to suppress catecholamine sulfonation in cultured human cells. […] HME cells were transfected with plasmid containing the coding region of either SULT1A3 or a negative control ([14]) (see Experiment and Transfection protocol). Transfectant isolates were grown to near confluence and harvested, and cell extracts were prepared (see Experiment). SULT1A3 levels in the extracts were assessed by determining SULT activity per μg extract (see Experiment). Activity in extracts of the SULT1A3-positive transfectants ranged from 1 to 85 times the levels present in negative-control extracts. […] Consequently, a transfectant, 1A3(+) with extract activity 42 times that of the negative-control isolate, 1A3(-), was selected for further experiments.
To establish conditions for ex vivo inhibition studies, the DP concentration and time dependence of dopamine sulfate (DPS) synthesis by 1A3(+) cells were assessed. DP and its metabolites (DPS, 3-methoxytyramine [3-MT], 3,4-dihydroxyphenylacetic acid [DOPAC], and homovanillic acid [HVA]) are baseline separable using HPLC and can be quantitated optically at […] (see Experiment and Fig. S1). Only DP and DPS were detected in the cell media, and together, they constituted >95% of the DP initially added to the media. The DPS concentration in the 1A3(+) media at 24 h after DP addition is plotted as a function of DP concentration in Fig. 6B. As is evident, the dose-response curve is linear at concentrations as high as 200 μM DP.
Figure 6 HME(+)-cell DPS synthesis and inhibition. A, Time dependence of DPS formation. DP was added at 100 μM to the growth medium of 60 to 70% confluent HME(+)-cells, and the DPS concentration in the medium was determined at the indicated time intervals. B, DP-concentration dependence of DPS synthesis. The Y-axis indicates the concentration of DPS in the growth media 24 h after DP addition. The X-axis indicates the DP concentration added at t = 0 to the growth medium of 60 to 70% confluent HME(+)-cells. […] The levels of DP (red dots) and DPS (blue dots) were determined 24 h after DP addition. […] A–D, dopamine metabolites were separated and quantitated using HPLC (see Experiment); each data point represents the average of three independent determinations, and the sum of DP and DPS concentrations was ≥95% of the total added DP. […]
Transfectants are grown to 60 to 70% confluency at 37 °C in 12-well plates in the MEM containing neomycin (400 μg ml^−1). […] DP metabolite peaks are baseline separated and detected optically at 280 nm (see Fig. S1). Standard curves were used to quantitate each metabolite (Ɛ280 = 3.2 and 2.8 mM^-1 cm^-1 for DP and DPS, respectively). DPS was detected only in the media of cells that express SULT1A3. […]

Each structure is given as a SMILES string. pIC50: −log10 of the molar value.

T1 sequence (P0DMM9 whole entry): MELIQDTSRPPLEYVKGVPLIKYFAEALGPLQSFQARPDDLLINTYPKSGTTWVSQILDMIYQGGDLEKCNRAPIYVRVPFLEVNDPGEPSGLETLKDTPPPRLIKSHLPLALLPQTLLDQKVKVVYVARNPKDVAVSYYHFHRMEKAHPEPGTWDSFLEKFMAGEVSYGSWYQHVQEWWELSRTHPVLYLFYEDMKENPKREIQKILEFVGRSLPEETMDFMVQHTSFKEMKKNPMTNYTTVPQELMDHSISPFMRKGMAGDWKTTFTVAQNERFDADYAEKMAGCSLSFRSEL

Take `CC(C)Cc1ccc2cc(CCC(N)=O)ccc2n1` [CMP12]: the “% Inhibition at saturation” value is 84 (3) % and the pIC50 was 6.59.
The corresponding values for `CC(C)Cc1ccc2cc(/C=C/C(N)=O)cnc2n1` [CMP13] are 95 (2) % and 7.92.

The pIC50 is the IC50 on a negative log10 scale, so that one unit is a factor of ten.
